The values below come from ChEMBL document CHEMBL5608163, “Structure modification of anoplin for fighting resistant bacteria” (Eur J Med Chem, 2024).

Values after ≈ are worked out from the molar mass of the structure shown. Numbered stars: 1 amine (or outer) side, 2 acyl side, 3 side chain; on linkers, the order of the positions; unused ones are H or OH. Square brackets hold non-standard residues; d marks the D form. Peptide text beside a SMILES is read from it. N(1-naphthylmethyl)Gly = O=C(O)CNCc1cccc2ccccc12; X3 = O=C(CN(CC(c1ccccc1)c1ccccc1)[*:1])[*:2]; NCyclohexylmethylGly = O=C(O)CNCC1CCCCC1; X2 = CCC(C)N(CC(=O)[*:2])[*:1]; N(iPr)Gly = CC(C)NCC(=O)O; NBuGly = CCCCNCC(=O)O; Nleu = CC(C)CNCC(=O)O; βAla = NCCC(=O)O

Series [1] relates to Staphylococcus aureus. In words: Antimicrobial activity against Staphylococcus aureus assessed as reduction in microbial growth by broth microdilution method. In kind it is functional. (In general: Dilution methods test growth across graded concentrations, often in twofold steps.)
The test system of series [2] is Escherichia coli. In words: Antimicrobial activity against Escherichia coli assessed as reduction in microbial growth by broth micro-dilution method. It is filed as functional.
Series [3] has as its system Erythrocyte. Kind of series: Hemolytic activity in mouse RBC. It is filed as toxicity, cell-based.
Series [4] deals with Staphylococcus aureus. Kind of series: Antibacterial activity against Staphylococcus aureus ATCC 25923 assessed as reduction in bacterial cell growth incubated for 18 hrs by two fold serial microdilution method. In kind it is functional.
Series [5] deals with Staphylococcus epidermidis. Kind of series: Antibacterial activity against Staphylococcus epidermidis ATCC 12228 assessed as reduction in bacterial cell growth incubated for 18 hrs by two fold serial microdilution method. It is filed as functional.
In series [6] the test system is Escherichia coli. In words: Antibacterial activity against Escherichia coli ATCC 25922 assessed as reduction in bacterial cell growth incubated for 18 hrs by two fold serial microdilution method. It is filed as functional.
The test system of series [7] is Pseudomonas aeruginosa. In words: Antibacterial activity against Pseudomonas aeruginosa ATCC 27853 assessed as reduction in bacterial cell growth incubated for 18 hrs by two fold serial microdilution method. It is filed as functional.
In series [8] the test system is Klebsiella pneumoniae. In words: Antibacterial activity against Klebsiella pneumoniae ATCC 700603 assessed as reduction in bacterial cell growth incubated for 18 hrs by two fold serial microdilution method. In kind it is functional.
Series [9] concerns Acinetobacter baumannii. Kind of series: Antibacterial activity against Acinetobacter baumannii ATCC 19606 assessed as inhibition in bacterial growth incubated for 20 to 24 hrs by CLSI based broth microdilution method. It is filed as functional. To be noted: time 20-24 hrs.
The test system of series [10] is Erythrocyte. In words: Hemolytic activity in mouse Red blood cells incubated for 1 hr. It is filed as toxicity, cell-based.

What is called MIC is the least concentration at which growth counts as inhibited. Regarding `CCC(C)NCC(=O)N[C@@H](CC(C)C)C(=O)N[C@@H](CC(C)C)C(=O)N[C@@H](CCCCN)C(=O)N[C@@H](CCCNC(=N)N)C(=O)N[C@H](C(=O)N[C@@H](CCCCN)C(=O)N[C@H](C(=O)N[C@@H](CC(C)C)C(=O)N[C@@H](CC(C)C)C(N)=O)[C@@H](C)O)[C@@H](C)CC` (stereo not given in full) (H-[X2]LLKRIKTLL-NH2), the MIC in series [1] and in [2] was above 100 µM each time. In [3], this compound came in with an HC10 above 50 µM.
Turning to `CCCCNCC(=O)N[C@@H](CC(C)C)C(=O)N[C@@H](CC(C)C)C(=O)N[C@@H](CCCCN)C(=O)N[C@@H](CCCNC(=N)N)C(=O)N[C@H](C(=O)N[C@@H](CCCCN)C(=O)N[C@H](C(=O)N[C@@H](CC(C)C)C(=O)N[C@@H](CC(C)C)C(N)=O)[C@@H](C)O)[C@@H](C)CC` (H-[NBuGly]LLKRIKTLL-NH2), the MIC in series [1] is above 100 µM; in series [2], 100 µM. The compound also returned an HC10 in series [3] above 50 µM.
`CC[C@H](C)[C@H](NC(=O)[C@H](CCCNC(=N)N)NC(=O)[C@H](CCCCN)NC(=O)[C@H](CC(C)C)NC(=O)[C@H](CC(C)C)NC(=O)CNCc1cccc2ccccc12)C(=O)N[C@@H](CCCCN)C(=O)N[C@H](C(=O)N[C@@H](CC(C)C)C(=O)N[C@@H](CC(C)C)C(N)=O)[C@@H](C)O` (H-[N(1-naphthylmethyl)Gly]LLKRIKTLL-NH2): the MIC came out at 25 µM in series [1] and 12.5 µM in series [2]. Besides, the HC10 in series [3] was above 50 µM.
Turning to `CC[C@H](C)[C@H](NC(=O)[C@H](CCCNC(=N)N)NC(=O)[C@H](CCCCN)NC(=O)[C@H](CC(C)C)NC(=O)[C@H](CC(C)C)NC(=O)CNCC(c1ccccc1)c1ccccc1)C(=O)N[C@@H](CCCCN)C(=O)N[C@H](C(=O)N[C@@H](CC(C)C)C(=O)N[C@@H](CC(C)C)C(N)=O)[C@@H](C)O` (H-[X3]LLKRIKTLL-NH2), the MIC in [1] worked out at 25 µM; in [2], 12.5 µM. This compound also came in with an HC10 in series [3] above 50 µM.
As to `CC[C@H](C)[C@H](NC(=O)[C@H](CCCNC(=N)N)NC(=O)[C@H](CCCCN)NC(=O)[C@H](CC(C)C)NC(=O)[C@H](CC(C)C)NC(=O)CNCC(C)C)C(=O)N[C@@H](CCCCN)C(=O)N[C@H](C(=O)N[C@@H](CC(C)C)C(=O)N[C@@H](CC(C)C)C(N)=O)[C@@H](C)O` (H-[Nleu]LLKRIKTLL-NH2), the MIC in series [1] and in [2] was above 100 µM each time. Moreover, the HC10 in series [3] is above 50 µM.
Consider `CC[C@H](C)[C@H](NC(=O)[C@H](CCCNC(=N)N)NC(=O)[C@H](CCCCN)NC(=O)[C@H](CC(C)C)NC(=O)[C@H](CC(C)C)NC(=O)CNCC1CCCCC1)C(=O)N[C@@H](CCCCN)C(=O)N[C@H](C(=O)N[C@@H](CC(C)C)C(=O)N[C@@H](CC(C)C)C(N)=O)[C@@H](C)O` (H-[NCyclohexylmethylGly]LLKRIKTLL-NH2), for which the MIC in [1] was 50 µM; in [2], 25 µM. This compound yielded an HC10 in [3] above 50 µM.
For the compound `CC[C@H](C)[C@H](NC(=O)[C@H](CCCNC(=N)N)NC(=O)[C@H](CCCCN)NC(=O)[C@H](CC(C)C)NC(=O)[C@H](CC(C)C)NC(=O)CCN)C(=O)N[C@@H](CCCCN)C(=O)NCCC(=O)N[C@@H](CC(C)C)C(=O)N[C@@H](CC(C)C)C(N)=O` (H-[βAla]LLKRIK[βAla]LL-NH2), the MIC in [4] was 128 µM (≈ 146 µg/mL); in [5], 64 µM (≈ 72.8 µg/mL); in series [6], 64 µM (≈ 72.8 µg/mL); in series [7], 64 µM (≈ 72.8 µg/mL); in [8], 64 µM (≈ 72.8 µg/mL); in [9], above 128 µM. Moreover, in series [10], the HC10 is above 256 µM.
As to `CC[C@H](C)[C@H](NC(=O)[C@H](CCCNC(=N)N)NC(=O)[C@H](CCCCN)NC(=O)CCNC(=O)[C@H](CC(C)C)NC(=O)CN)C(=O)N[C@@H](CCCCN)C(=O)N[C@H](C(=O)N[C@@H](CC(C)C)C(=O)N[C@@H](CC(C)C)C(N)=O)[C@@H](C)O` (H-GL[βAla]KRIKTLL-NH2), the MIC in series [4] is above 128 µM; in [5], above 128 µM; in [6] it was above 128 µM; in [7] it was 32 µM (≈ 35.6 µg/mL); in series [8] it was above 128 µM; in series [9], above 128 µM. Moreover, the HC10 in series [10] is above 256 µM.
Regarding `CC[C@H](C)[C@H](NC(=O)[C@H](CCCNC(=N)N)NC(=O)[C@H](CCCCN)NC(=O)[C@H](CC(C)C)NC(=O)[C@H](CC(C)C)NC(=O)CN)C(=O)NCCC(=O)N[C@H](C(=O)N[C@@H](CC(C)C)C(=O)N[C@@H](CC(C)C)C(N)=O)[C@@H](C)O` (H-GLLKRI[βAla]TLL-NH2), the MIC is 64 µM (≈ 70.2 µg/mL) in series [4]; 32 µM (≈ 35.1 µg/mL) in [5]; 64 µM (≈ 70.2 µg/mL) in [6]; 32 µM (≈ 35.1 µg/mL) in [7]; 128 µM (≈ 140 µg/mL) in series [8]; above 128 µM in series [9]. The HC10 in series [10] is above 256 µM.
On to `CC[C@H](C)[C@H](NC(=O)[C@H](CCCNC(=N)N)NC(=O)[C@H](CCCCN)NC(=O)[C@H](CC(C)C)NC(=O)[C@H](CC(C)C)NC(=O)CNC(C)C)C(=O)N[C@@H](CCCCN)C(=O)N[C@H](C(=O)N[C@@H](CC(C)C)C(=O)N[C@@H](CC(C)C)C(N)=O)[C@@H](C)O` (H-[N(iPr)Gly]LLKRIKTLL-NH2), for which the MIC in [1] and in series [2] was above 100 µM in each case. Besides, the HC10 in [3] is above 50 µM.
For the compound `CC[C@H](C)[C@H](NC(=O)[C@H](CCCNC(=N)N)NC(=O)CCNC(=O)[C@H](CC(C)C)NC(=O)[C@H](CC(C)C)NC(=O)CN)C(=O)N[C@@H](CCCCN)C(=O)N[C@H](C(=O)N[C@@H](CC(C)C)C(=O)N[C@@H](CC(C)C)C(N)=O)[C@@H](C)O` (H-GLL[βAla]RIKTLL-NH2), the MIC was above 128 µM in [4]; 64 µM (≈ 70.2 µg/mL) in series [5]; 128 µM (≈ 140 µg/mL) in series [6]; 32 µM (≈ 35.1 µg/mL) in [7]; above 128 µM in series [8]; above 128 µM in [9]. The compound also registered an HC10 in [10] above 256 µM.
As for `CC[C@H](C)[C@H](NC(=O)[C@H](CCCNC(=N)N)NC(=O)[C@H](CCCCN)NC(=O)[C@H](CC(C)C)NC(=O)[C@H](CC(C)C)NC(=O)CN)C(=O)N[C@@H](CCCCN)C(=O)N[C@H](C(=O)N[C@@H](CC(C)C)C(=O)NCCC(N)=O)[C@@H](C)O` (H-GLLKRIKTL[βAla]-NH2), the MIC in series [4], in series [5], in series [6], in series [7], in [8] and in series [9] was above 128 µM throughout. In addition, in series [10], the HC10 was above 256 µM.
`CC[C@H](C)[C@H](NC(=O)[C@H](CCCNC(=N)N)NC(=O)[C@H](CCCCN)NC(=O)[C@H](CC(C)C)NC(=O)[C@H](CC(C)C)NC(=O)CN)C(=O)N[C@@H](CCCCN)C(=O)N[C@H](C(=O)NCCC(=O)N[C@@H](CC(C)C)C(N)=O)[C@@H](C)O` (H-GLLKRIKT[βAla]L-NH2): the MIC in series [4], in series [5], in series [6], in series [7], in series [8] and in [9] was above 128 µM each time. The compound also gave an HC10 in series [10] above 256 µM.
Turning to `CC(C)C[C@H](NC(=O)[C@H](CC(C)C)NC(=O)[C@@H](NC(=O)[C@H](CCCCN)NC(=O)CCNC(=O)[C@H](CCCNC(=N)N)NC(=O)[C@H](CCCCN)NC(=O)[C@H](CC(C)C)NC(=O)[C@H](CC(C)C)NC(=O)CN)[C@@H](C)O)C(N)=O` (H-GLLKR[βAla]KTLL-NH2), the MIC in series [4], in [5], in series [6], in [7], in [8] and in series [9] was above 128 µM each time. In addition, in series [10], the HC10 is above 256 µM.
